Source: publication PMC12380353, “MK-8527 is a novel inhibitor of HIV-1 reverse transcriptase translocation with potential for extended-duration dosing” (PLOS Biology, 2025)
Values joined by “and” are separate entries in the source; they are usually repeats but may differ in a detail not shown here. Identical values can stand only once.

Experiments:
HIV-2ROD = assay: Cytoprotection assay in CEM-SS cells, HIV-2; assay type: cell-based; settings: Human immunodeficiency virus 2, 144 h, 6 days, read-out: Antiviral potency as IC50, HIV-2 – CEM-SS cells
Method: (§1) The antiviral activity of MK-8527 against HIV-1 and HIV-2 was determined in a cytoprotection assay in CEM-SS cells at ImQuest BioSciences (Fredrick, MD, USA). Briefly, CEM-SS cells (National Institute of Health AIDS Research and Reference Reagent Program) were passaged in RPMI 1640 supplemented with 10% heat-inactivated FBS, 2 mM L-glutamine, 100 U/mL penicillin and 100 µg/mL streptomycin prior to use in the antiviral assay. On the day preceding the assay, the cells were split 1:2 to ensure they were in an exponential growth phase at the time of infection. The cells were resuspended at 2.5 × 10^3 cells per well in cell culture medium and added to the drug-containing microtiter plates at 50 µL per well. MK-8527 was tested in triplicate for each experiment, with 12 test concentrations added at 100 µL per well.
(§2) Lymphocyte-tropic virus strains HIV-1IIIB or HIV-2ROD (NIH AIDS Research and Reference Reagent Program) were diluted into tissue culture medium such that the amount of virus added to each well in a volume of […] corresponded to the amount determined to yield 85% to 95% cell killing in the untreated virus control wells at 6–7 days. Virus was added immediately after cells were added to the 96-well microtiter plates.
(§3) The IC50 for MK-8527 antiviral activity was determined using 4-parameter curve fit calculations.

HIV-1IIIB = assay: Cytoprotection assay in CEM-SS cells, HIV-1; assay type: cell-based; settings: Human immunodeficiency virus 1, 144 h, 6 days, read-out: Antiviral potency as IC50, HIV-1 – CEM-SS cells
Method: as §1, §2, §3

[1] = MK-8527-TP in PBMCs of rhesus monkeys after oral dosing; assay type: in vivo; settings: oral MK-8527 50 mg/kg
Method: The intracellular concentration of MK-8527-TP was determined by an LC–MS/MS assay. LC–MS/MS analysis was performed on a Acquity UPLC system (Waters Corporation; Milford, MA, USA) interfaced to an API-5500 mass spectrometer using a TurboIonSpray source (Sciex, Framingham, MA, USA) in positive ionization mode. Separation of MK-8527-TP was achieved on a BioBasic AX column (2.1 × 100 mm, 5 µm; Thermo Fisher Scientific) at 45 °C using gradient elution with mobile phases consisting of 70% water to 30% acetonitrile containing 10 mM ammonium acetate (solvent A) and 70% water to 30% acetonitrile containing 20 mM ammonium acetate, 1.5% ammonium hydroxide (NH4OH) (v/v), and 10% isopropyl alcohol (IPA) (v/v) (solvent B) at a flow rate of 0.75 mL/min. The chromatography was run as follows: The column was equilibrated with 97% A, and after sample injection 97% A was maintained for 0.10 min before concentration was increased linearly to 100% B until 3.00 min, followed by a hold at 100% B until 3.50 min. The column was then washed by alternating linear ramps from 97% A to 100% B up to 4.10 min, then returned to the initial conditions at 4.30 min and kept for an additional 1.20 min. The total run time was 5.50 min. Quantification was performed by monitoring the transitions of m/z 548.9 to 169.1 for MK-8527-TP. The method was linear across a concentration range of 1–5,000 nM in cell samples across species. The method’s lower limit of quantification was between 1 and 5 nM depending on the assay volumes of cell suspension. Analyte concentrations in cell samples across species were determined from the standard curves using linear regression with 1/×2 weighting.
PBMCs were isolated from heparinized monkey blood using the following protocol. To begin, blood samples (approximately 12–18 mL) were diluted with an equal volume of calcium- and magnesium-free PBS at pH 7.4 and gently mixed. Separation of PBMCs from the diluted blood was achieved using 50 mL AccuSpin tubes loaded with Histopaque-1077 lymphocyte separation medium (both: Thermo Fisher Scientific). Samples were centrifuged at 800g for 15 min at room temperature. The resulting plasma/buffer supernatant was removed without disturbing the PBMC interface. Next, the PBMC interface was removed with a pipette, and the cells were washed by the addition of calcium- and magnesium-free PBS (pH 7.4) to a final volume of 15 mL. PBMCs were harvested by centrifugation at 250g for 20 min at room temperature. The supernatant was decanted with care taken not to disturb the PBMC pellet, and the wash step was repeated once (250 × g for 15 min). After the second wash, the cell pellet was resuspended in 7 mL of calcium- and magnesium-free PBS, and an aliquot was removed for cell counting. PBMCs were harvested from the remaining cell suspension by centrifugation at 250g for 15 min at room temperature. The supernatant was removed, and the cell pellet was resuspended in 0.1–0.3 mL of methanol and water at a 70:30 ratio. Cell suspensions were stored at […] prior to analysis.

[2] = Uptake and phosphorylation assay in PBMCs; assay type: in vitro ADME, human; settings: PBMCs incubated with 0.21 nM MK-8527
Method: To determine the amount of MK-8527 phosphorylated forms produced after treatment of PBMCs, uptake and phosphorylation assays were performed. PBMCs were activated with 5 µg/mL PHA in RPMI 1640, 10% FBS, 100 units/mL penicillin, and 100 µg/mL streptomycin at 1.2 × 10^6 cells/mL. All incubations were in a humidified incubator at 37 °C and with 5% CO2. After 3–4 days in culture, media containing PHA were removed by centrifugation at 300g for 10 min. Cells were resuspended at 2 × 10^6 cells/mL in RPMI 1,640, 10% NHS, 100 units/mL penicillin, 100 µg/mL streptomycin, and 20 units/mL IL-2. A total of 7.5 × 10^6 to 2 × 10^7 cells were transferred to a miniature bioreactor tube. […]
The intracellular concentration of MK-8527-TP was determined by an LC–MS/MS assay. […] Quantification was performed by monitoring the transitions of m/z 548.9 to 169.1 for MK-8527-TP. […] The method’s lower limit of quantification was between 1 and 5 nM depending on the assay volumes of cell suspension. Analyte concentrations in cell samples across species were determined from the standard curves using linear regression with 1/×2 weighting.
Concentrations of intracellular phosphorylated forms were expressed in picomoles per 10^6 cells by using the molar concentration of each compound as determined by LC–MS/MS and the number of viable cells included in each 100-µL sample.

SMILES | IC50 (HIV-2ROD) [nM] | IC50 (HIV-1IIIB) [nM] | Arithmetic Mean Concentration in PBMCs ([1]; 2 hr) [µM] | Concentration in PBMCs, individual subjects ([1]; 2 hr) | Arithmetic Mean Concentration in PBMCs ([1]; 24 hr) [µM] | Concentration in PBMCs, individual subjects ([1]; 24 hr) | Arithmetic Mean Concentration in PBMCs ([1]; 72 hr) [µM] | Concentration in PBMCs, individual subjects ([1]; 72 hr) | Arithmetic Mean Concentration in PBMCs ([1]; 168 hr) [µM] | Concentration in PBMCs, individual subjects ([1]; 168 hr) | Intracellular MK-8527-TP level by LC–MS/MS [2]
C#C[C@]1(CO)O[C@@H](n2ccc3c(N)nc(Cl)nc32)C[C@@H]1O [Compound 12, (2R,3S,5R)-5-(4-amino-2-chloro-7H-pyrrolo[2,3-d]pyrimidin-7-yl)-2-ethynyl-2-(hydroxymethyl)tetrahydrofuran-3-ol] | 0.007 | 0.14 | – | – | – | – | – | – | – | – | –
C#C[C@]1(COP(=O)(O)OP(=O)(O)OP(=O)(O)O)O[C@@H](n2ccc3c(N)nc(Cl)nc32)C[C@@H]1O [MK-8527-TP] | – | – | 11.11 | 18.77 µM and 6.47 µM and 11.31 µM | 15.02 | 15.33 µM and 20.00 µM and 11.04 µM | 2.78 | 5.67 µM and 2.28 µM and 1.67 µM | 0.66 | 1.83 µM and 0.38 µM and 0.40 µM | below the limit of quantitation
